One assay concerns telomerase. Nature of the assay: Telomerase activity (TRAP) in vitro, MASMs of aging stimulation models. The format is cell-based, mouse. Conditions: MASMs of aging stimulation model control group, cultured 1 day with SL. How it is done:
In FIGS. 18a and 18b, the telomerase activity was measured using TRAP protocol (Wright et al., 1995). In summary, cell pellets were lysed in CHAPS lysis solvent (containing ribnuclease inhibitor), followed by incubation at 4° C. for 30 minutes. Cell extracts ([…]) were TRAPeze reaction mix (telomerase substrate (TS) primer, fluorescent-labeled RP (reverse) primer, control standard template, and sulforhodamine-labeled standard K2 primer). The TS primer was elongated at 30° C. for 30 minutes, and then PCR was performed. The fluorescence of the thus obtained TRAP product was measured using a fluorescent plate reader to quantify telomerase activity. Relative telomerase activity was normalized by the ratio of native […] to sulforhodamine (internal control standard), expressed as a percentage. Fluorescein (M0250) was purchased from Marker Gene Technologies, Inc. H2-dichlorofluorescin diacetate (DCFDA) was purchased from Molecular Probes. MitoSOX™ Red, MitoTracker Green FM, and MitoTracker® Orange CMTMRos (MTO) were purchased from Invitrogen. 10,000× SYBR® Gold dye was purchased from Molecular Probes, Inc. Nuclear/Cytosol fractionation kit (K266-100) was purchased from BioVision. TRAPeze® XL telomerase detection kit (S7707) was purchased from MILLIPORE. Telomere PNA FISH Kit/Cy3 (K5326) was purchased from Dako. […]

The next assay relates to PGC-1α and related genes. As to the kind of experiment: Gene expression in brain and hippocampus of epilepsy/convulsion brain disease models. In kind it is in vivo, rat. Conditions: Noda epileptic rats, oral 0.1 mg/kg/day, 10 weeks. An excerpt:
In order to investigate the gene expression changes by the treatment with SL (3′-SL & 6′-SL) compositions in epilepsy/convulsion brain disease models, 4-week-old normal SD rats and epilepsy/convulsion brain disease models (Noda epileptic rat, NER) were purchased from Central Lab Animal (Korea). Water was freely accessible, and a commercially available pellet feed (Dooyeul Biotech, Korea) was given for two weeks. At 6 weeks of age, the SD rats were divided into four groups (composed of 8 animals per group): Eight 6-week-old male SD rats (normal rats; initial body weight, average 176.3±13.3 g) treated with a normal diet were used for a control group. […]
Sialyllactose or DW was orally administered daily. […] The dietary intake and body weight change were measured every 5 days. […]
The gene expression changes by the treatment with SL (3′-SL & 6′-SL) compositions were quantitatively compared in two main organs (brain and hippocampus) associated with bran diseases. RNA was extracted by TRIzol agent (Invitrogen). cDNA was synthesized by using RNA, which has been extracted as above and quantified, and a reverse transcription system (Promega, USA). The expression patterns of PGC-1α and related genes were measured by using pre-designed primers and probes (Applied Biosystems; PGC-1α, Mm00447181_m1, […]) for the synthesized cDNA and analysis targets (Fndc5, PGC-1α, Erra, UCP1, BDNF, SOD2, and GPX1). […]

Consider `CC(=O)N[C@H]1[C@H]([C@H](O)[C@H](O)CO)O[C@@](O[C@H]2[C@@H](O)[C@@H](CO)O[C@@H](O[C@H]3[C@H](O)[C@@H](O)C(O)O[C@@H]3CO)[C@@H]2O)(C(=O)O)C[C@@H]1O` (stereo partly drawn) [3′-SL, α-NeuNAc-(2→3)-β-D-Gal-(1→4)-D-Glc], for which the “telomerase activity in MASMs (in vitro)” value in the assay on telomerase is recorded as “increased telomerase activity”. In the assay with PGC-1α and related genes, the “expression levels of PGC-1α and related genes vs SL non-administration (epilepsy/convulsion brain disease model) group” value is recorded as “relatively low compared with 6′-SL”.
On the same counts, the results for `CC(=O)N[C@H]1[C@H]([C@H](O)[C@H](O)CO)O[C@@](OC[C@H]2O[C@@H](O[C@H]3[C@H](O)[C@@H](O)[C@H](O)O[C@@H]3CO)[C@H](O)[C@@H](O)[C@H]2O)(C(=O)O)C[C@@H]1O` [6′-SL, α-NeuNAc-(2→6)-β-D-Gal-(1→4)-D-Glc] are “increased telomerase activity” and “significant increases”.

Source of the values: patent publication US20190030053A1, “COMPOSITION FOR INCREASING EXPRESSION OF PGC-1alpha” (BENEBIOSIS CO., LTD., priority 2016, published 2019).
